{
  "source": "ChEMBL document CHEMBL3352410",
  "about": "(J Med Chem, 2014)",
  "key": {"Mu-type opioid receptor [1]": {"biological_target": "T1, Mu-type opioid receptor (Homo sapiens, UniProt P35372)", "T1 sequence (P35372 whole entry)": "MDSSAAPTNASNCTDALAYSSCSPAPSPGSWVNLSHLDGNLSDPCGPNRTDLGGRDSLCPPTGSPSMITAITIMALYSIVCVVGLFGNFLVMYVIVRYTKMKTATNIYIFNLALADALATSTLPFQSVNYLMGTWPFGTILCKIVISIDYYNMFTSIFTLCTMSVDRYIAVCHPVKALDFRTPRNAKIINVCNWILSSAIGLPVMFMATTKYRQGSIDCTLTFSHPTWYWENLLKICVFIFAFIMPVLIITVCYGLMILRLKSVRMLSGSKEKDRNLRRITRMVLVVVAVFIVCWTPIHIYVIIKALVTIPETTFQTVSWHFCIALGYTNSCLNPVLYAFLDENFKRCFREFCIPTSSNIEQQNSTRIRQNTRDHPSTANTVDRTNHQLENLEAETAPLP", "assay": "Binding affinity to human mu opioid receptor expressed in CHO cells", "assay_type": "cell-based"}, "[2]": {"biological_target": "T2, Kappa-type opioid receptor (Homo sapiens, UniProt P41145)", "T2 sequence (P41145 whole entry)": "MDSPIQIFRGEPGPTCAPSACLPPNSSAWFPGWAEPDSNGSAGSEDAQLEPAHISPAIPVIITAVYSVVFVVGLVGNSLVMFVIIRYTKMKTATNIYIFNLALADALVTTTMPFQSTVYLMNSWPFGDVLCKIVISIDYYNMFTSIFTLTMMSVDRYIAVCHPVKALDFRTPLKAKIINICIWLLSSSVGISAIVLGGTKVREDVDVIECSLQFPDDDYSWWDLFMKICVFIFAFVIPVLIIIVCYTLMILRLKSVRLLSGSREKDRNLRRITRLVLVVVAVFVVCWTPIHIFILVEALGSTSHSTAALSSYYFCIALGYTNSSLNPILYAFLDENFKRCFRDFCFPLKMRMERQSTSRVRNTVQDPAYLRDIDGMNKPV", "assay": "Binding affinity to human kappa opioid receptor expressed in CHO cells", "assay_type": "cell-based"}, "[3]": {"biological_target": "T3, Delta-type opioid receptor (Homo sapiens, UniProt P41143)", "T3 sequence (P41143 whole entry)": "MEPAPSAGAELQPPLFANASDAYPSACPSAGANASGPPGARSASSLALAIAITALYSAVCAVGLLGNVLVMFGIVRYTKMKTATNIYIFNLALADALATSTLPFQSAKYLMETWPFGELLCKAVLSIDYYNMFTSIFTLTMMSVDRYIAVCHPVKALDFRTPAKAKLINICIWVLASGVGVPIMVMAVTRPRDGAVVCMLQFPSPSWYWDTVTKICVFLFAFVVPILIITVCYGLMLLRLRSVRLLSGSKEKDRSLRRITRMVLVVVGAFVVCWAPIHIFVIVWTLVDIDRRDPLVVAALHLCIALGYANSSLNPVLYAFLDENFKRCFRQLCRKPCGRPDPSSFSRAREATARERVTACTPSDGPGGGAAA", "assay": "Binding affinity to human delta opioid receptor expressed in CHO cells", "assay_type": "cell-based"}, "Mu-type opioid receptor [4]": {"biological_target": "T1, Mu-type opioid receptor", "assay": "Antagonist activity at human mu opioid receptor expressed in CHO cells assessed as inhibition of DAMGO-stimulated [35S]GTPgammaS binding", "assay_type": "functional, cell-based"}, "[5]": {"biological_target": "T2, Kappa-type opioid receptor", "assay": "Antagonist activity at human kappa opioid receptor expressed in CHO cells assessed as inhibition of U69,593-stimulated [35S]GTPgammaS binding", "assay_type": "functional, cell-based"}, "[6]": {"biological_target": "T3, Delta-type opioid receptor", "assay": "Antagonist activity at human delta opioid receptor expressed in CHO cells assessed as inhibition of DPDPE-stimulated [35S]GTPgammaS binding", "assay_type": "functional, cell-based"}},
  "data": [
    {"smiles": "C[C@H]1CN(CC[C@H](O)C2CCCCC2)CC[C@@]1(C)c1ccccc1", "values": [
      {"measurement": "Ki", "setting": "Mu-type opioid receptor [1]", "result": 0.0077, "unit": "µM"},
      {"measurement": "Ki", "setting": "[2]", "result": 0.749, "unit": "µM"},
      {"measurement": "Ki", "setting": "[3]", "result": 0.169, "unit": "µM"},
      {"measurement": "Kb", "setting": "Mu-type opioid receptor [4]", "result": 0.0016, "unit": "µM"},
      {"measurement": "Kb", "setting": "[5]", "result": 0.0406, "unit": "µM"},
      {"measurement": "Kb", "setting": "[6]", "result": 0.0471, "unit": "µM"}
    ]}
  ]
}
